Measured values reported in patent US20250051347A1, “BIFUNCTIONAL CHIMERIC HETEROCYCLIC COMPOUND AND USE THEREOF AS ANDROGEN RECEPTOR DEGRADER” (Hinova Pharmaceuticals, Inc., priority 2021, published 2025).
Like-named read-outs stand apart in the source and are kept apart here.

How the values were obtained:
[1] = target: T1, androgen receptor (AR) splicing variant AR-v7 (Homo sapiens, UniProt P10275); assay: Degradation activity on androgen receptor splicing variant AR-v7 in 22RV1 cells (ELISA); type: cell-based; conditions: AR-v7 degradation in 22RV1 cells, 48 h, class symbols
T1 construct: The degradation activity of compounds on AR-v7 in 22RV1 cells; host or cells: 22RV1 cells
T1 sequence (P10275 1-644 isoform P10275-3): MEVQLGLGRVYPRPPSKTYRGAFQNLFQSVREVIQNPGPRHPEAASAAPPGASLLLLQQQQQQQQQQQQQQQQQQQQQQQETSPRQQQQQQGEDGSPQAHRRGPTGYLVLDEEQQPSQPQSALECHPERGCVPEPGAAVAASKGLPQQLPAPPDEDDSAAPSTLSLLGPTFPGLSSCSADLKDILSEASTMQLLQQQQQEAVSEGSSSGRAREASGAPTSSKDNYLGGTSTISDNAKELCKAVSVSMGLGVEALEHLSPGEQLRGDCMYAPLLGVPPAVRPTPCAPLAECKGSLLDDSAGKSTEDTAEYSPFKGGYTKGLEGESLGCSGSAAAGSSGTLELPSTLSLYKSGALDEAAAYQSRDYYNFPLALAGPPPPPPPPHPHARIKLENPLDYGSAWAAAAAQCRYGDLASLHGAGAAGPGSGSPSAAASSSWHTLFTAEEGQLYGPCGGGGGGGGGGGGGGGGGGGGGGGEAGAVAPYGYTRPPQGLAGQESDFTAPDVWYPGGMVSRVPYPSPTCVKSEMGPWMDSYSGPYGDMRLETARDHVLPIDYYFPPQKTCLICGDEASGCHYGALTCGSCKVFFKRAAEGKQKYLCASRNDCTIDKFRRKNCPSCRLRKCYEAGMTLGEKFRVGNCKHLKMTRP

[2] = Homo sapiens, 22Rv1, 144 h, read-out: 22RV1 IC50 (nM), 22RV1 cells, 6 days culture, CCK-8, OD 450 nm

Row | Compound | DC50 [1] [nM] | IC50 (22RV1 cells; Homo sapiens, 22Rv1, 144 h, read-out: 22RV1 IC50 (nM)) [nM] | IC50 (22RV1 cells; [2]) [nM] | IC50 (22RV1 cells; read-out: 22RV1 IC50, 22RV1 cells, 6 days culture, CCK-8, OD 450 nm) [nM]
1 | CCC(CC)(c1ccc(Oc2ccc(-c3noc(C)n3)nn2)cc1)c1ccc(O[C@H]2C[C@@H](Nc3ccc4c(c3)C(=O)N(C3CCC(=O)NC3=O)C4=O)C2)cc1 (stereo partly drawn) [Example 526] | < 10 | 5 | – | –
2 | CC(C)(c1ccc(O[C@H]2C[C@@H](Nc3ccc4c(c3)C(=O)N(C3CCC(=O)NC3=O)C4=O)C2)cc1)c1ccc(N2CCc3ncnc(N4CC5(COC5)C4)c3C2)cc1 (stereo partly drawn) [Example 194] | 11 to 100 | – | 33 | –
3 | CC(C)(c1ccc(OCc2cncc(N3CC4(COC4)C3)n2)cc1)c1ccc(O[C@H]2C[C@H](Nc3ccc4c(c3)C(=O)N(C3CCC(=O)NC3=O)C4=O)C2)cc1 (stereo partly drawn) [Example 539] | < 10 | – | 8 | –
4 | Cc1nc(-c2nccc(COc3ccc(C(C)(C)c4ccc(O[C@H]5C[C@@H](Nc6ccc7c(c6)C(=O)N(C6CCC(=O)NC6=O)C7=O)C5)cc4)cc3)n2)no1 (stereo partly drawn) [Example 278] | < 10 | – | 6 | –
5 | CC(C)(c1ccc(Oc2cnc(-n3nccn3)nc2)cc1)c1ccc(O[C@H]2C[C@H](Nc3ccc4c(c3)C(=O)N(C3CCC(=O)NC3=O)C4=O)C2)cc1 (stereo partly drawn) [Example 436, 5-(((1r,3r)-3-(4-(2-(4-((2-(2H-1,2,3-triazol-2-yl)pyrimidin-5-yl)oxy)phenyl)propan-2-yl)phenoxy)cyclobutyl)amino)-2-(2,6-dioxopiperidin-3-yl)isoindolin-1,3-dione] | < 10 | – | 6 | –
6 | CC(O)c1nccc(COc2ccc(C(C)(C)c3ccc(O[C@H]4C[C@@H](Nc5ccc6c(c5)C(=O)N(C5CCC(=O)NC5=O)C6=O)C4)cc3)cc2)n1 (stereo partly drawn) [Example 492] | < 10 | – | 7 | –
7 | COc1nccc(COc2ccc(C(C)(C)c3ccc(OC4CC(Nc5ccc6c(c5)C(=O)N(C5CCC(=O)NC5=O)C6=O)C4)cc3)cc2)n1 (stereo not drawn) [Example 447, 2-(2,6-dioxopiperidin-3-yl)-5-((3-(4-(2-(4-((2-methoxypyrimidin-4-yl)methoxy)phenyl)propan-2-yl)phenoxy)cyclobutyl)amino) isoindolin-1,3-dione] | < 10 | – | 8 | –
8 | CC(C)(c1ccc(Oc2cnc(-n3ccnn3)nc2)cc1)c1ccc(O[C@H]2C[C@H](Nc3ccc4c(c3)C(=O)N(C3CCC(=O)NC3=O)C4=O)C2)cc1 (stereo partly drawn) [Example 476] | 11 to 100 | – | 14 | –
9 | CC(C)(c1ccc(OCc2ccnc(N3CC4(CCOC4)C3)n2)cc1)c1ccc(O[C@H]2C[C@@H](Nc3ccc4c(c3)C(=O)N(C3CCC(=O)NC3=O)C4=O)C2)cc1 (stereo partly drawn) [Example 88, 5-(((1s,3s)-3-(4-(2-(4-((2-(6-oxa-2-azaspiro[3.4]octan-2-yl)pyrimidin-4-yl)methoxy)phenyl)propan-2-yl)phenoxy)cyclobutyl)amino)-2-(2,6-dioxopiperidin-3-yl)isoindolin-1,3-dione] | < 10 | – | 15 | –
10 | C[C@@H](O)c1cnc(Oc2ccc(C3(c4ccc(OC5CC(Nc6ccc7c(c6)C(=O)N(C6CCC(=O)NC6=O)C7=O)C5)cc4)CCCC3)cc2)cn1 (stereo partly drawn) [Example 178, 2-(2,6-dioxopiperidin-3-yl)-5-(((1r,3r)-3-(4-(1-(4-((5-(1-hydroxylethyl)pyrazin-2-yl)oxy)phenyl)cyclopentyl)phenoxy)cyclobutyl)amino) isoindolin-1,3-dione] | < 10 | – | – | 5
11 | O=C1CCC(N2C(=O)c3ccc(NC4CC(Oc5ccc(C6(c7ccc(OCc8ccnc(N9CC%10(COC%10)C9)n8)cc7)CCC6)cc5)C4)cc3C2=O)C(=O)N1 (stereo not drawn) [Example 356, 5-((3-(4-(1-(4-((2-(2-oxa-6-azaspiro[3.3]heptane-6-yl)pyrimidin-4-yl)methoxy)phenyl)cyclobutyl)phenoxy)cyclobutyl)amino)-2-(2,6-dioxopiperidin-3-yl)isoindolin-1,3-dione] | < 10 | – | 16 | –
12 | CC(=O)c1ccc(Oc2ccc(C3(c4ccc(O[C@H]5C[C@H](Nc6ccc7c(c6)C(=O)N(C6CCC(=O)NC6=O)C7=O)C5)cc4)CCCC3)cc2)nn1 (stereo partly drawn) [Example 104] | < 10 | – | 1 | –
